Experiments:
[1] = target: T1, LYVE-1 present on the lymph endothelium (swine hindlimb lymph vessel) (Sus scrofa, UniProt I3LTD0); experiment: Staining of lymph vessels with HA-NIR, compared with ICG; type: in vivo
T1 construct: LYVE-1 present on the lymph endothelium; from tissue; host or cells: live white Yorkshire swine, hindlimb lymph vessels (lymph endothelium)
T1 sequence (I3LTD0 25-326): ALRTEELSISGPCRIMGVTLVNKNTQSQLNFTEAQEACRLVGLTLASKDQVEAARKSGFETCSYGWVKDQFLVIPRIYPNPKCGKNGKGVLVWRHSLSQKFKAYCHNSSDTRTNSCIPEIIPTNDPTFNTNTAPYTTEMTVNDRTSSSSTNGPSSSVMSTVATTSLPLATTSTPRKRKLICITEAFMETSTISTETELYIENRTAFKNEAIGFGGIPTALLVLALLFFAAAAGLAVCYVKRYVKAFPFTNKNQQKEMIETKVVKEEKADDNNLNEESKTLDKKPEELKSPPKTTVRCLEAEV
Procedure: Four, two-month old, 60 lb white Yorkshire swine (K Bar Livestock, HC 69 Box 270 Sabinal, Tex.) were imaged using protocols which were approved by the Baylor College of Medicine Institutional Animal Care and Use Committee. The animals were anesthetized, intubated, and maintained with isoflurane. Animal body temperature was maintained at 100° F. using a warming blanket. At the end of the procedure, the animals were euthanized and lymph nodes resected with fluorescence guidance.
Continuous-wave optical imaging of the fluorescent NIR dyes was performed with a custom built intensified charged-coupled device (CCD). Reynolds J S, Troy T L, and Sevick-Muraca E M. Multipixel techniques for frequency-domain photon migration imaging. Biotechnol Prog 13: 669-680, 1997., incorporated herein by reference in its entirety for all purposes. Briefly, the device had three principal components: 1) a NIR-sensitive image intensifier (model FS9910C ITT Night Vision, Roanoke, Va.); 2) a 16-bit dynamic range, frame transfer CCD camera (Roper Scientific, Tucson, Ariz.); and 3) a 785-nm laser diode (Thorlabs) used to provide the excitation light for activating ICG and hyaluronan-NIR. The 785-nm laser diode beam was expanded by using a planoconvex lens and a holographic optical diffuser such that approximately 0.08 m^2 of the swine's body was illuminated. A 785-nm holographic notch band rejection filter (model HNPF-785.0-2.0, Kaiser Optical Systems, Ann Arbor, Mich.) and an 830-nm image quality bandpass filter (model 830.0-2.0, Andover, Salem, N.H.) were placed before the 28-mm Nikkor lens (Nikon) to selectively reject the excitation light and pass the emitted 830-nm wavelength. […]
Images were processed using MATLAB (The Mathworks, Natick, Mass.), ImageJ (National Institutes of Health, Bethesda, Md.), and V++ (Digital Optics, Auckland, New Zealand). […] To reveal the frequency of the pulsatile flow, which is a characteristic of pumping lymphatics, the mean fluorescence intensity from a fixed region of interest on a lymph channel was selected and plotted as a function of imaging time. […]

[2] = cited from earlier work

Row | Molecule | normalized fluorescent intensity at fixed ROI as a function of time (FIG. 10C) ([1]; image acquisition 6 min, leg lymph vessel) | propulsion of packets ([1]; intradermal, 64 μM HA-NIR or 32 μM ICG, swine hindlimb vessel) | fluorescent intensity as a function of vessel length and time (FIGS. 11C, 11D) ([1]; swine lymph vessels) | fraction broken down in the liver ([2]; liver) [%] | fraction degraded in lymph nodes ([2]; lymph nodes) [%]
1 | CC1(C)C(/C=C/C=C/C=C/C=C2\N(CCCCS(=O)(=O)O)c3ccc4ccccc4c3C2(C)C)=[N+](CCCCS(=O)(=O)[O-])c2ccc3ccccc3c21 [ICG, indocyanine green] | fluctuation and net reduction of intensity | observed | varies with time and length along the vessel | – | –
2 | hyaluronic acid [HA] | – | – | – | 10 | 90

— patent US7875260B2, “Imaging agents for functional imaging of lymphatic structures” (Baylor College of Medicine, priority 2006, dated 2011)
